Read-outs that look alike come from different tables or passages of the source.
Columns and labels:
[1] = system: Caco-2 cells (TC7 clone); experiment: Caco-2 assay (permeability, efflux ratio); assay type: in vitro ADME
Description: (§1) Reagents and Materials: Phosphate Buffer 20mM pH 7.4: EMS, Art No. 11601-40; DMSO Merck Art. No. 102950; Acetonitrile Merck, Art. No. 100030, Methanol Merck Art. No.
106007; Formic Acid Merck Art.No.100264; Acetonitrile Merck Art. No.10030; Filtration Plate Millipore MultiScreen HTS HV 0.45uM; 96 Well Millipore Art. No. MSHVN4510; Column Waters XBridge Column C8 3.5μm (Waters Cat. No. 186003053); HPLC vials VWR Cat. No. 5480028; Micro-Inserts VWR Cat. No. 548-0006; Screw caps VWR Cat. No.
The Caco-2 assays were performed in a transwell assay setup using Caco-2 cells (TC7 clone). The Caco-2 cells were seeded into the apical wells (125000 cells per well) in DMEM (Dulbecco’s Modified Eagle’s Medium) with 20% FBS (fetal bovine serum) into Corning 24-well transwell plates and cultured for 14-21 days. Prior to the experiment, the plates were washed with HBSS (Hanks' Balanced Salt Solution). Apparent permea-bility Papp was determined from apical-to-basolateral (Papp,AB) by adding 1 […] in HBSS into the apical compartment and HBSS in the basolateral compart-ment, and vice versa for Papp,BA from basolateral-to-apical. Apical volumes were 250 μL, basolateral volumes were 750 μL. DMSO content was <1 % (v/v) in all wells. Monolayer tightness was controlled using melagatran as tightness marker.
Samples were taken from both compartments at timepoint t0 and after 2 hours incuba-tion at 37 °C in 5% CO2 and 100% humidity, and analyzed via UHPLC-MS/MS. The ap-parent permeability Papp was calculated as follows:
P௔௣௣ = Δc௥௘௖Δt∙ V௥௘௖A x cௗ௢௡,଴
Where ∆crec/∆t is the change of concentration in the receiver compartment over the incu-bation time (i.e. 2 hours), Vrec is volume of the receiver compartment, cdon,0 is the concen-tration in the donor compartment at time t0, and A is the surface of the membrane on which the cells grew (i.e. 0.33 cm²).
Mass balance was checked after the experiment by determining the recovery after the […]
Recovery = nௗ௢௡,௘௡ௗ + nௗ௢௡,௥௘௖= cௗ௢௡,௘௡ௗ ∙Vௗ௢௡ + c௥௘௖ ,௘௡ௗ ∙V௥௘௖
The efflux ratio (ER) describes affinity towards efflux transporters:
The geometric mean of Papp,AB and Papp,BA was used as passive permeability Papp,pass.

[2] = system: female CD-1 mouse; experiment: IVIVE of mouse clearance from microsomes (well-stirred model, regression correction); details: for in vitro (mic.) pred. CLint,b - Kilford / in vitro (mic.) pred. CLint,b,u - Kilford / Fold obs. / pred. (mic.) CL,b,u - Kilford: Kilford fu,mic
Description: Compounds with phase II metabolism were removed from the microsome set (N = 25). […] The following regression equations were derived for microsomes and hepatocytes, respectively: log predicted CLint = 0.8 * log scaled CLint + 0.6 and log predicted CLint = 0.6 * log scaled CLint + 0.8, with CLint expressed in mL/min/kg.
According to Sohlenius-Sternbeck et al., the following equations were used for IVIVE: scaled CLint,b=in vitro CLint∗microsomes/hepatocytes/gram of liver∗liver weight/body weight∗fu,p/fu,inc∗Rb
The physiological scaling factors, taken from Simcyp^TM version 13/1 (Certara), were 48 mg of microsomal protein per gram of liver (MPPGL), 101.7 × 10^6 hepatocytes per gram of liver (HPGL), a liver weight of 1.46 g, and a body weight of 0.025 kg. For microsomes and hepatocytes, fu,mic and fu,hep, were used as the unbound fraction in the incubation (fu,inc), respectively. predicted CLint,b=10^(log scaled CLint∗slope+intercept)
For microsomes, a slope of 0.8 and an intercept of 0.6 were used, and for hepatocytes, a slope of 0.6 and an intercept of 0.8, according to the regression equations derived above. predicted CL,b=pred. CLint,b∗QH/pred. Clint,b+QH
CLp/Rb observed CLint,b=QH∗obs. CL,b/QH−obs. CL,b
All unbound clearance terms were calculated by dividing the respective clearance by fu,p. predicted/observed CL,b,u=pred./obs. CL,b/fu,p
The above-described approach was applied for the IVIVE of clearance of the data set analyzed in this study. Additionally, in order to evaluate the impact of the Kilford calculations as a surrogate for the experimentally determined free fraction in the in vitro systems, clearance was extrapolated using the Kilford equations [16] using the same regression coefficients.

[3] = Kinetic solubility; assay type: physicochemical
Description: The kinetic solubility (KSOL) determination is carried out in a 96-well plate filtration format where the sample (2 μL of sample stock solution 10mM DMSO) is combined to 98 μL of 20 mM buffer phosphate pH 7.4. The filtration plate is then incubated and agitated at 250 rpm for 120 minutes. After stirring, the plate is centrifuged at 2500 rpm for 3 minutes, allowing all solvent to be collected in the lower microplate. Next to avoid pre-cipitation, 50 μL of the filtered solution is diluted with 50 μL of 2% DMSO in pH 7.4 buffer solution to yield a 100 μM sample solution ready for H(U)PLC analytics.
For the standard, each compound is prepared by combining 2 μL of the sample stock solution 10mM DMSO to 198 μL Acetonitrile/Methanol/Eluant A ([…]).
For the evaluation, wavelength with maximum sensitivity is to be selected. The kinetic solubility is determined according to following formulas, whereas S is the targeted value […]
L = area௦௔௠௣௟௘ × concentration௦௧௔௡ௗ௔௥ௗ × dilution factor௦௔௠௣௟௘area௦௧௔௡ௗ௔௥ௗ × dilution factor௦௧௔௡ௗ௔௥ௗ with: L= Concentration of solved compound in buffer [μg/ml] and S= Molar concentra-tion of solved compound in buffer [mol/L]
Chromatographic conditions: Column Waters XBridge Column C8 3.5μm (Waters Cat No 186003053); Column temperature 37°C; Autosampler Room temperature (approx.
25°C); Injection volume 10 μL (HPLC) / 3μL (UPLC); Wavelength 220 nm, 254 nm, 290 nm. Eluant A: 1 mL Formic Acid + 999 mL Ultrapure Water; Eluant B: 1 mL Formic Acid […]
Table S5. Gradient for UHPLC analysis
Time Eluent A (%) Eluent B (%) Flow (ml/min)
as §1
106007; Formic Acid Merck Art.No.100264; Acetonitrile Merck Art. No.10030; Filtration Plate Millipore MultiScreen HTS HV 0.45uM; 96 Well Millipore Art. No. MSHVN4510; Column Waters XBridge Column C8 3.5μm (Waters Cat. No. 186003053); HPLC vials VWR Cat. No. 5480028; Micro-Inserts VWR Cat. No. 548-0006; Screw caps VWR Cat. No. […]

[4] = microsomes, experimental fu,mic

CaCo-2 Efflux ratio ER ([1]; Caco-2) | CaCo-2 Papp Passive ([1]; Caco-2) | in vitro (mic.) pred. CLint,b - Kilford ([2]; from microsomes) [mL/min/kg] | in vitro (mic.) pred. CLint,b,u - Kilford ([2]; from microsomes) [mL/min/kg] | in vitro (mic.) pred. CLint,b - exp. fu,mic ([2]; from microsomes, exp. fu,mic) [mL/min/kg] | in vitro (mic.) pred. CLint,b,u - exp. fu,mic ([2]; from microsomes, exp. fu,mic) [mL/min/kg] | Fold obs. / pred. (mic.) CL,b,u - Kilford ([2]; microsomes) | Fold obs. / pred. (mic.) CL,b,u - exp. fu,mic ([2]; microsomes, exp. fu,mic) | Kinetic solubility PBS pH 7.4 [3] [µM] | CaCo-2 Efflux ratio ER [1] | CaCo-2 Papp Passive ([1]; apparent passive permeability) | in vitro (mic.) pred. CLint,b - Kilford ([2]; microsomes) [mL/min/kg] | in vitro (mic.) pred. CLint,b,u - Kilford ([2]; microsomes) [mL/min/kg] | Fold obs. / pred. (mic.) CL,b,u - exp. fu,mic [2, 4] | in vitro (mic.) pred. CLint,b - exp. fu,mic [2, 4] [mL/min/kg] | in vitro (mic.) pred. CLint,b,u - exp. fu,mic [2, 4] [mL/min/kg] | SMILES
1.0 | 24.10 10e-6 cm/s | 59.38 | 1278.61 | 127.90 | 2754.05 | 1.7 | 1.1 | 105.1 |  |  |  |  |  |  |  | N#Cc1c[nH]c2c(C(=O)N3CCN(CCc4ccc(F)cc4)CC3)cccc12 [MSC213]
 |  |  |  |  |  | 0.5 |  | > 200 | 2.6 | 25.85 10e-6 cm/s | 5.69 | 334.02 | 0.5 | 5.96 | 349.34 | O=C(O)c1cc(-c2ccc(F)cc2F)ccc1O [MSC001]
 |  |  |  |  |  | 1.3 |  | 165.4 | 48.4 | 2.67 10e-6 cm/s | 148.30 | 772.42 | 1.1 | 214.87 | 1119.12 | COc1cccc(OCCCN)c1-c1cc(Nc2cnc(C#N)cn2)n[nH]1 [MSC020]
 |  |  |  |  |  | 0.528 |  | 156.7 | 1.4 | 31.60 10e-6 cm/s | 13.72 | 179.53 | 0.5 | 14.24 | 186.35 | CNC(=O)c1cc(Oc2ccc3nc(N[C@@H]4CCCC[C@H]4O)sc3c2)ccn1 [MSC003]
